The source made the active and inactive calls. No cut-off for these calls is given here. Where a SMILES comes first, the peptide text is derived from it. The star is where a group is joined. Propyl(2R-PamO,3-PamO) = CCCCCCCCCCCCCCCC(=O)OC[C@H](C*)OC(=O)CCCCCCCCCCCCCCC; Palmitoyl = CCCCCCCCCCCCCCCC(=O)*

Assay [1] concerns the target T1, TLR2/TLR6 (Homo sapiens, UniProt O60603+Q9Y2C9). The assay is described as follows: Agonist activity at human TLR2/TLR6 expressed in HEK-Blue hTLR2-TLR6 cells by SEAP reporter gene based Quanti-blue assay. It is filed as cell-based. A general note: A reporter such as luciferase makes a cellular process visible.
In assay [2] the target is T2, TLR2/TLR6 (Mus musculus) (UniProt Q9QUN7+Q9EPW9). The assay is described as follows: Agonist activity at TLR2/TLR6 in C57BL/6 mouse spleen B cells assessed as increase in CD40 expression incubated for 24 hrs by fluorescence based flow cytometric analysis. The format is tissue-based. Conditions: B cell, filed as agonist, dose 10-0.1 µg/ml, DDE = dose-dependent effect.

Assay [3] has as its system Mus musculus. In words: Immuno-adjuvant activity in C57BL/6 mouse immunized with recombinant hepatitis B surface antigen assessed as increase in IgG2/IgG1 ratio at 10 ug, IM administered twice 2 weeks apart by ELISA analysis. The format is functional, organism-based. Conditions: dose 10.0 µg.
Assay [4] concerns the target T2, TLR2/TLR6 (Mus musculus). The assay is described as follows: Agonist activity at TLR2/TLR6 in C57BL/6 mouse spleen B cells assessed as increase in CD86 expression incubated for 24 hrs by fluorescence based flow cytometric analysis. Conditions: B cell, filed as agonist, dose 10-0.1 µg/ml, DDE = dose-dependent effect. The format is tissue-based. (In general: Flow cytometry measures light scatter and fluorescence of single cells or particles in a stream.)

Assay [5] deals with T1, TLR2/TLR6. In words: Agonist activity at TLR2/TLR6 in human PBMC cells assessed as increase in IL-10 production at 0.1 ug/ml incubated for 24 hrs. The format is cell-based. Conditions: filed as agonist, dose 0.1 µg/ml.
Assay [6] deals with Mus musculus. In words: Protection against influenza A/California/04/2009 virus-challenged C57BL/6 mouse assessed as effect on body weight at 10 ug, IM administered twice 2 weeks apart along with recombinant influenza A/California/04/2009 HA protein immunization. It is filed as functional, organism-based. Conditions: dose 10.0 µg.
The target of assay [7] is T1, TLR2/TLR6. In words: Agonist activity at TLR2/TLR6 in human PBMC cells assessed as increase in IL-6 production at 0.1 ug/ml incubated for 24 hrs. The note with it: filed as agonist, dose 0.1 µg/ml. It is filed as cell-based.
Assay [8] has as its system Mus musculus. In words: Protection against influenza A/California/04/2009 virus-challenged C57BL/6 mouse assessed as effect on survival at 10 ug, IM administered twice 2 weeks apart along with recombinant influenza A/California/04/2009 HA protein immunization. It is filed as functional, organism-based. Conditions: dose 10.0 µg.
Assay [9] concerns Mus musculus. The assay is described as follows: Immuno-adjuvant activity in C57BL/6 mouse immunized with recombinant influenza A/California/04/2009 HA protein assessed as increase in anti-HAs antibody at 10 ug, IM administered twice 2 weeks apart by ELISA analysis. It is filed as functional, organism-based. The note with it: dose 10.0 µg.
Assay [10] addresses T2, TLR2/TLR6 (Mus musculus). In words: Agonist activity at TLR2/TLR6 in C57BL/6 mouse spleen dendritic cells assessed as increase in CD86 expression incubated for 24 hrs by fluorescence based flow cytometric analysis. It is filed as tissue-based. Conditions: Dendritic cell, filed as agonist, dose 10-0.1 µg/ml, DDE = dose-dependent effect.
Assay [11] has as its target T1, TLR2/TLR6. In words: Agonist activity at TLR2/TLR6 in human PBMC cells assessed as increase in TNF-alpha production at 0.1 ug/ml incubated for 24 hrs. It is filed as cell-based. The note with it: filed as agonist, dose 0.1 µg/ml.
For assay [12], the target named is T2, TLR2/TLR6 (Mus musculus). The assay is described as follows: Agonist activity at TLR2/TLR6 in C57BL/6 mouse spleen dendritic cells assessed as increase in CD40 expression incubated for 24 hrs by fluorescence based flow cytometric analysis. It is filed as tissue-based. Conditions: Dendritic cell, filed as agonist, dose 10-0.1 µg/ml, DDE = dose-dependent effect.

Assay [13] concerns Mus musculus. In words: Immuno-adjuvant activity in C57BL/6 mouse immunized with recombinant hepatitis B surface antigen assessed as increase in anti-HBs antibody at 10 ug, IM administered twice 2 weeks apart by ELISA analysis. It is filed as functional, organism-based. The note with it: dose 10.0 µg. (In general: In an ELISA, binding on a coated surface is turned into a signal by an enzyme label.)

Assay [14] addresses T2, TLR2/TLR6 (Mus musculus). In words: Agonist activity at TLR2/TLR6 in C57BL/6 mouse spleen dendritic cells assessed as increase in CD86 expression at 10 to 0.1 ug/ml incubated for 24 hrs by fluorescence based flow cytometric analysis. The format is tissue-based. Conditions: Dendritic cell, filed as agonist, dose 10-0.1 µg/ml.
For assay [15], the target named is T2, TLR2/TLR6 (Mus musculus). The assay is described as follows: Agonist activity at TLR2/TLR6 in C57BL/6 mouse spleen B cells assessed as increase in CD86 expression at 10 to 0.1 ug/ml incubated for 24 hrs by fluorescence based flow cytometric analysis. Conditions: B cell, filed as agonist, dose 10-0.1 µg/ml. It is filed as tissue-based.
The target of assay [16] is T2, TLR2/TLR6 (Mus musculus). In words: Agonist activity at TLR2/TLR6 in C57BL/6 mouse spleen B cells assessed as increase in CD40 expression at 10 to 0.1 ug/ml incubated for 24 hrs by fluorescence based flow cytometric analysis. It is filed as tissue-based. The note with it: B cell, filed as agonist, dose 10-0.1 µg/ml.
For assay [17], the target named is T2, TLR2/TLR6 (Mus musculus). In words: Agonist activity at TLR2/TLR6 in C57BL/6 mouse spleen dendritic cells assessed as increase in CD40 expression at 10 to 0.1 ug/ml incubated for 24 hrs by fluorescence based flow cytometric analysis. The format is tissue-based. The note with it: Dendritic cell, filed as agonist, dose 10-0.1 µg/ml.

T1 sequence (O60603 whole entry): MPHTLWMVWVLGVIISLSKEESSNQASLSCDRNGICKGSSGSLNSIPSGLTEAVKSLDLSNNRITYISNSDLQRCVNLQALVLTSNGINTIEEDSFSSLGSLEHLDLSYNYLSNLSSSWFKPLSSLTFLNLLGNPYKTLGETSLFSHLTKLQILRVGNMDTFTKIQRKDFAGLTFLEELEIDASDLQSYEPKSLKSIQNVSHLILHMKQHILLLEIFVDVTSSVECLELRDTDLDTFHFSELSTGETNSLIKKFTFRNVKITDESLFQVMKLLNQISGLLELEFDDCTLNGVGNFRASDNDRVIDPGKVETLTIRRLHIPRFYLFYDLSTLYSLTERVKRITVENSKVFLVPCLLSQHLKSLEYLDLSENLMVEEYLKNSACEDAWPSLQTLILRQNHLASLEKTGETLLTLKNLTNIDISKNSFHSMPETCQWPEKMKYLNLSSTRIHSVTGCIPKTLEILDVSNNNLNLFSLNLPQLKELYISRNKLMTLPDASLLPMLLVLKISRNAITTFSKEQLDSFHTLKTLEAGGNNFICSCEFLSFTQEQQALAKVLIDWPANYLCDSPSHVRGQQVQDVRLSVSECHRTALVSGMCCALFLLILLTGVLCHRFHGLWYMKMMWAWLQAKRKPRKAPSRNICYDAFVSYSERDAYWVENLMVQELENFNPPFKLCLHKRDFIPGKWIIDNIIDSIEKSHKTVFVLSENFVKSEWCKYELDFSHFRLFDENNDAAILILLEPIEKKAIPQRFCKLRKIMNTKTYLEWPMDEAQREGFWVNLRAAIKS
T1 sequence (Q9Y2C9 whole entry): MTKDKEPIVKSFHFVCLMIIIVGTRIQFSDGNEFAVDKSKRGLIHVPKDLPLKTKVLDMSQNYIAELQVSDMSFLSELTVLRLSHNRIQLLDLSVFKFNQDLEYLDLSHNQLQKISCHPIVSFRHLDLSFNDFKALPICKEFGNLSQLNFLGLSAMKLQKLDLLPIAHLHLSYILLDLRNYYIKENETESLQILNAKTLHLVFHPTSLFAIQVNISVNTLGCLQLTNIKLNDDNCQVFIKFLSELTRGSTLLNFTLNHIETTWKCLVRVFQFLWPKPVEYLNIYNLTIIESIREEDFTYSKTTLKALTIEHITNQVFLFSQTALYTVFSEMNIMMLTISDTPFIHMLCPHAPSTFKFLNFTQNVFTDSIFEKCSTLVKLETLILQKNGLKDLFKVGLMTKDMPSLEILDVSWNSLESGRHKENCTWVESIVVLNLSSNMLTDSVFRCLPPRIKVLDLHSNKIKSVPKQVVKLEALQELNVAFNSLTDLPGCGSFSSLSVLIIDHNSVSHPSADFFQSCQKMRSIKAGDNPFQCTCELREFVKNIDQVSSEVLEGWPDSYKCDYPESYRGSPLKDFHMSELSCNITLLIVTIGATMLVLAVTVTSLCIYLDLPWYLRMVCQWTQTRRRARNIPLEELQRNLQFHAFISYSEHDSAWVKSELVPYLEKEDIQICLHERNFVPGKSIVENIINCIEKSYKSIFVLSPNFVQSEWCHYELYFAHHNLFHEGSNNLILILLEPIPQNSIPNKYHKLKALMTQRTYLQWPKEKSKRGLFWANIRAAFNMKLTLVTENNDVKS

For the compound `CCCCCCCCCCCCCCCC(=O)OC[C@@H](CSC[C@H](NC(=O)OC(C)(C)C)C(=O)N[C@@H](COC(C)(C)C)C(=O)OC)OC(=O)CCCCCCCCCCCCCCC`, in [1], it took 4270 nM to reach a half-maximal effect (EC50).
For `CCCCCCCCCCCCCCCC(=O)OC[C@H](CSC[C@H](N)C(=O)N[C@@H](CO)C(=O)OC)OC(=O)CCCCCCCCCCCCCCC`, the Activity result in assay [2], in assay [4], in [10] and in assay [12] was “Dde” each time. Also, the result in assay [3], in assay [5], in assay [6], in assay [7], in assay [8] and in assay [9] was Active. Moreover, the result in assay [11] and in [13] was Active. Besides, in [1], the EC50 (as a rule, the concentration needed to bring the measured effect to its halfway point) worked out at 0.4 nM.
For `CCCCCCCCCCCCCCCC(=O)OC[C@H](CSC[C@H](NC(=O)OC(C)(C)C)C(=O)N[C@@H](COC(C)(C)C)C(=O)OC)OC(=O)CCCCCCCCCCCCCCC`, the result in assay [14] and in assay [15] was Active. In assay [1], it took 5870 nM to reach a half-maximal effect (EC50).
As for `CCCCCCCCCCCCCCCC(=O)OC[C@@H](CSC[C@H](N)C(=O)N[C@@H](CO)C(=O)OC)OC(=O)CCCCCCCCCCCCCCC`, the Activity result in assay [2], in [4], in [10] and in assay [12] was “Dde” each time. In assay [1], this compound came in with an EC50 of 134 nM.
As to `CCCCCCCCCCCCCCCC(=O)OC[C@H](CSC[C@H](NC(C)=O)C(=O)N[C@@H](CO)C(=O)OC)OC(=O)CCCCCCCCCCCCCCC`, the outcome in [3], in [5], in [6], in [7], in [8] and in assay [9] was Active. Also, the outcome in assay [11] and in assay [13] was Active. Further, the EC50 in [1] amounted to 0.8 nM.
`CCCCCCCCCCCCCCCC(=O)OCC(CSC[C@H](N)C(=O)N[C@@H](CO)C(=O)OC)OC(=O)CCCCCCCCCCCCCCC` (mixture of isomers): the outcome in assay [5], in [6], in [7], in assay [8], in assay [9] and in [11] was Active. For the same compound, in [1], it took 1 nM to reach a half-maximal effect (EC50).
Regarding `CCCCCCCCCCCCCCCC(=O)OC[C@H](CSC[C@H](N)C(=O)N[C@@H](CO)C(=O)N[C@@H](CCCCN)C(=O)N[C@@H](CCCCN)C(=O)N[C@@H](CCCCN)C(=O)N[C@@H](CCCCN)C(=O)O)OC(=O)CCCCCCCCCCCCCCC` (H-C(Propyl(2R-PamO,3-PamO))SKKKK-OH), the outcome in assay [5], in assay [14], in assay [7], in assay [16], in assay [17] and in assay [11] was Active. In addition, the result in assay [15] and in assay [13] was Active. This compound had an EC50 in [1] of 0.3 nM.
`CCCCCCCCCCCCCCCC(=O)OCC(CSC[C@H](NC(C)=O)C(=O)N[C@@H](CO)C(=O)OC)OC(=O)CCCCCCCCCCCCCCC` (mixture of isomers): the outcome in [5], in assay [7] and in assay [11] was Active. Further, in [1], the EC50 turned out to be 5 nM.
As for `CCCCCCCCCCCCCCCC(=O)OCC(CSC[C@H](NC(=O)OC(C)(C)C)C(=O)N[C@@H](COC(C)(C)C)C(=O)OC)OC(=O)CCCCCCCCCCCCCCC` (mixture of isomers), in assay [1], the EC50 stood at 5640 nM.
For `CCCCCCCCCCCCCCCC(=O)N[C@@H](CSC[C@@H](COC(=O)CCCCCCCCCCCCCCC)OC(=O)CCCCCCCCCCCCCCC)C(=O)N[C@@H](CO)C(=O)N[C@@H](CCCCN)C(=O)N[C@@H](CCCCN)C(=O)N[C@@H](CCCCN)C(=O)N[C@@H](CCCCN)C(=O)O` (Palmitoyl-C(Propyl(2R-PamO,3-PamO))SKKKK-OH), the result in assay [5], in assay [14], in [7], in assay [16], in assay [17] and in assay [11] was Active. Also, the result in assay [15] and in assay [13] was Active. In assay [1], this compound returned an EC50 of 19.3 nM.
Consider `CCCCCCCCCCCCCCCC(=O)OC[C@@H](CSC[C@H](NC(C)=O)C(=O)N[C@@H](CO)C(=O)OC)OC(=O)CCCCCCCCCCCCCCC`, for which the result in assay [5], in assay [7] and in assay [11] was Active. This compound yielded an EC50 in assay [1] of 252 nM.
